In publication PMC9693223 (Molecules, 2022) one finds EC50 and IC50 data, which are given here for one compound.

Structures are written as SMILES.

The term EC50 denotes the concentration at which the effect is half-maximal. As a reminder, the IC50 is the concentration that inhibits the measured activity by half.

The test system of assay [1] is L. mexicana Cas9 promastigotes. Nature of the assay: Alamar blue drug sensitivity assay, L. mexicana Cas9 promastigotes. Type of assay: cell-based, Leishmania mexicana. The settings on record: Leishmania mexicana, 120 h, 72 h + 48 h resazurin, at least 3 independent determinations, read-out: EC50 (µM) AVG ± SEM, Cas9. The method in brief: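 Promastigotes cultured in HOMEM with 10% FBS at 25 °C were added as a 2 × 10^6 cells mL^−1 culture to 23-point compound dilutions. After 72 h at 25 °C, resazurin was added for a further 48 h, and fluorescence was read at ex 544/em 620 nm. EC50 came from a variable-slope sigmoid fit (3–4 independent experiments).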
(Resazurin is reduced to fluorescent resorufin, in cell work by metabolically active cells.)

The test system of assay [2] is T. cruzi epimastigotes (CL Brener strain). Nature of the assay: In vitro inhibition of proliferation of T. cruzi epimastigotes. Type of assay: cell-based, Trypanosoma cruzi. The settings on record: Trypanosoma cruzi; cell densities at the 5th day of proliferation, four independent experiments. As for the experimental part:
Trypomastigotes were obtained by infecting CHO-K1 cells. CHO-K1 cells were cultivated in RPMI-1640 medium supplemented with 10% heat-inactivated fetal calf serum (FCS), 0.15% (w/v) […], 100 µg mL^−1 penicillin and 130 µg mL^−1 streptomycin and incubated at 37 °C in a humidified atmosphere containing 5% CO2. CHO-K1 cells were initially incubated with metacyclic trypomastigotes obtained by in vitro differentiation of epimastigotes as previously described (multiplicity of infection: 50 parasites per cell) for 4 h. After washing out the non-internalized parasites, the cells were incubated overnight in RPMI medium supplemented with 10% FCS at 37 °C and then maintained at 33 °C in a humidified atmosphere containing 5% CO2 as previously reported. Infected cells were maintained at 33 °C in the presence of 10% FCS. Infected cell-derived trypomastigotes started to burst into the culture medium at the 5th day post-infection. Trypomastigotes collected at day 5 or 6 post infection were used for the viability assays.
The density of exponentially proliferating epimastigotes for each assay was adjusted to 2.0 × 10^6 parasites mL^−1, transferred into 96-well plates (200 μL/well) and incubated with different concentrations of the compounds 5-F-2′-deoxyuridine, 5-F-uracil, 5-F-uridine or benznidazole. A combination of 60 μM rotenone and 0.5 μM antimycin (RA) was used as a positive control for proliferation inhibition (positive control), as previously described. […] The epimastigote proliferation was measured as previously reported, by reading the optical density (OD) at 620 nm every 24 h for 9 days (which collects readings through the exponential and stationary phases). […] The half-maximal inhibitory concentrations (IC50) were determined during the exponential growth phase (fifth day) by adjusting a sigmoidal dose-response function to experimentally obtained data using GraphPad Prism 8. The compounds were assessed in quadruplicate in each experiment, and the results correspond to four independent experiments.

Assay [3] has as its system bloodstream form T. brucei. Details: method as in PMID 23188714, PMID 23505454. The following applies: ref [47],[54]; read-out: EC50 against bloodstream form T. brucei; cited from earlier work.

On to `O=c1[nH]c(=O)n([C@H]2C[C@H](O)[C@@H](CO)O2)cc1F` [5-F-2′-dUrd, 5-F-2′-deoxyuridine], for which the EC50 is 2.19 ± 0.11 µM in assay [1] and 5.2 µM in assay [3]. Moreover, in assay [2], the IC50 was 16.8 ± 0.01 µM.
